Results taken from patent US11408885B2, “Compositions and multiplex assays for characterizing active proteases and their inhibitors” (Massachusetts Institute of Technology, priority 2017, dated 2022).
Values belong to the molecule of their own block, whether it stands above or below them.

Assays:
MMP3 [1] = target: T1, MMP3 (Homo sapiens, UniProt P08254); experiment: Competitive-MAMBI: loss of HxBP-Bt probe labeling with competitive inhibitor; type: binding; set-up: purchased Peprotech; details: recombinant and menstrual effluent, inhibitor 0.17-7.5 μM, HxBP-Bt 0.5 μM
Description: (§1) The MAMBI platform was utilized for characterization of inhibitors, in which the HxBP-Bt probe binding to active metalloproteinase was assayed in the presence of small molecule metalloproteases inhibitors. The relative inhibitor potencies were quantified by the loss of labeling by activity-based probe of a target protease with the addition of a competitive inhibitor. Selectivity was additionally estimated by monitoring relative potencies across an enzyme superfamily.
(§2) The relative inhibition by 10 commercially available inhibitors was characterized in a mixture of six recombinant MMPs, as well as in menstrual serum effluent.
(§3) Protease labeling was reported as a fraction of MAMBI signal without competitive inhibition.
Target sequence in this assay (P08254 100-477): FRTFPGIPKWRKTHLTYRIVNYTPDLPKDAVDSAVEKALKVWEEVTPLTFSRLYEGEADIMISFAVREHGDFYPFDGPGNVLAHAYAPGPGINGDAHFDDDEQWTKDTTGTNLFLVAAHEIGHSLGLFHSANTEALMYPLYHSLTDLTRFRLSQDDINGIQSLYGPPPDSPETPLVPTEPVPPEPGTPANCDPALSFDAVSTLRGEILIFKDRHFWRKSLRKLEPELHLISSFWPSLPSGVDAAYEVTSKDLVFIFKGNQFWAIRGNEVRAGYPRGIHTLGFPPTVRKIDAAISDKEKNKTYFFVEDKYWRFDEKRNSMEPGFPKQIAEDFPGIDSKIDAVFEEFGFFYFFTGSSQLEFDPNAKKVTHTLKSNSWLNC

MMP2 [2] = target: T2, MMP2 (Homo sapiens, UniProt P08253); experiment: as above; type: binding; set-up: purchased Peprotech; details: inhibitor 0.17-7.5 μM, HxBP-Bt 0.5 μM
T2 sequence (P08253 110-660): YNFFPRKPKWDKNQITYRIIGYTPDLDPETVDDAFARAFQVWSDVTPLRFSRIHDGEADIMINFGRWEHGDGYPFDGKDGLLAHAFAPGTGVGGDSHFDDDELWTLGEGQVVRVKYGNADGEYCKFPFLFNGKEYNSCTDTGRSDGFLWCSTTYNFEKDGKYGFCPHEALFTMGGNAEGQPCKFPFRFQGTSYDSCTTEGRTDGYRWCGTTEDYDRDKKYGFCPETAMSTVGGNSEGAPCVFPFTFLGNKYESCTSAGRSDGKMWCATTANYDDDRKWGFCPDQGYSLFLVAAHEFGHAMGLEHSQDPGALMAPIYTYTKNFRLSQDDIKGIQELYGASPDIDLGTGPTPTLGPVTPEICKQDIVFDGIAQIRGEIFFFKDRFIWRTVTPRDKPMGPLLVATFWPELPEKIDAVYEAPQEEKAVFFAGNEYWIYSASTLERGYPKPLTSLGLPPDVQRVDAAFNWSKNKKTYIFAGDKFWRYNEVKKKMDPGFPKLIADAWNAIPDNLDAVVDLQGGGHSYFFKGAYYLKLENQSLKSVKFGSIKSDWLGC

MMP7 [3] = target: T3, MMP7 (Homo sapiens, UniProt P09237); details: literature; cited from earlier work
T3 sequence (P09237 95-267): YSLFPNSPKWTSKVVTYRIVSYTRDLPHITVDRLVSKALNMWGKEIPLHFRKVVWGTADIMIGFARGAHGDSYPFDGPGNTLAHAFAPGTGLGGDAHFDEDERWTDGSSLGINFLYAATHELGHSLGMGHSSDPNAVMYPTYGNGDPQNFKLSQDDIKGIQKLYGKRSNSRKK

MMP7 [4] = target: T3, MMP7; experiment: Competitive-MAMBI: loss of HxBP-Bt probe labeling with competitive inhibitor; type: binding; set-up: The recombinant catalytic domains of human MMPs 7 and 9 were purchased from Enzo Life Sciences, and of MMP 12 from Anaspec; purchased Enzo Life Sciences; details: recombinant and effluent derived samples, inhibitor 0.17-7.5 μM, HxBP-Bt 0.5 μM
Description: as §1, §2, §3

MMP1 = target: T4, MMP1 (Homo sapiens, UniProt P03956); experiment: as above; type: binding; set-up: purchased Peprotech; details: recombinant and effluent derived samples, inhibitor 0.17-7.5 μM, HxBP-Bt 0.5 μM
T4 sequence (P03956 100-469): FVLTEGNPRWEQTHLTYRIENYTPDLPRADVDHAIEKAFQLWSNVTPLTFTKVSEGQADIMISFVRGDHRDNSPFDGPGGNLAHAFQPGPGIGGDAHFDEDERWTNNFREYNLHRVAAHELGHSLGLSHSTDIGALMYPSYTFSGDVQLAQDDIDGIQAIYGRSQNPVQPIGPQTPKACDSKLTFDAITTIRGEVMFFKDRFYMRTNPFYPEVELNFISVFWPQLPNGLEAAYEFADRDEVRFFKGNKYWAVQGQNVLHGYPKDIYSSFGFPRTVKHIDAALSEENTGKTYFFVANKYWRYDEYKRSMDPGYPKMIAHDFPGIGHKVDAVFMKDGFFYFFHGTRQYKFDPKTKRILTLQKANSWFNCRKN

MMP2 [5] = target: T2, MMP2; details: literature; cited from earlier work
MMP9 [6] = target: T5, MMP9 (Homo sapiens, UniProt P14780); details: literature; cited from earlier work
Target sequence in this assay (P14780 94-707, species assumed): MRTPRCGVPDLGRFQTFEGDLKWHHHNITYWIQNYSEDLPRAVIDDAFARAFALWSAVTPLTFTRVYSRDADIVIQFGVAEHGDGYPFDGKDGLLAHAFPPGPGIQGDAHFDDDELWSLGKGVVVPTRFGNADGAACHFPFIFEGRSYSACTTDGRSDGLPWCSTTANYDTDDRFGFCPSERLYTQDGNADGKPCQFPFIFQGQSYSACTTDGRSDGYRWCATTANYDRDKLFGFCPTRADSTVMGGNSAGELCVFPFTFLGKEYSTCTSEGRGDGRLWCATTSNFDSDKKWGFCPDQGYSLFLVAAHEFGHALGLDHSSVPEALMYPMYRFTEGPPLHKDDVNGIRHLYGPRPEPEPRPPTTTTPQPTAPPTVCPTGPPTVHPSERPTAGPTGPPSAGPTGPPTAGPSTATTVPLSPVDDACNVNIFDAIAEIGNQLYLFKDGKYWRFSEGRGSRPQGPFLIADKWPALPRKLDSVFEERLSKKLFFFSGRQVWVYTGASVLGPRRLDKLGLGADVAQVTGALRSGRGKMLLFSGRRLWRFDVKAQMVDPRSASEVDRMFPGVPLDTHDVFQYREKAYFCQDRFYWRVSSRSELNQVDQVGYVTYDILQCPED

[7] = tested on: panel of MMPs (MMP1, MMP2, MMP3, MMP7, MMP9, MMP12); experiment: Competitive-MAMBI: loss of HxBP-Bt probe labeling with competitive inhibitor; type: binding, human; details: recombinant MMPs and menstrual effluent; inhibitor 0.17-7.5 μM, HxBP-Bt 0.5 μM
MMP9 [8] = target: T5, MMP9; experiment: as above; type: binding; set-up: The recombinant catalytic domains of human MMPs 7 and 9 were purchased from Enzo Life Sciences, and of MMP 12 from Anaspec; purchased Enzo Life Sciences; details: MMP9 (gelatinase); inhibitor 0.17-7.5 μM, HxBP-Bt 0.5 μM
Description: as §1, §2, §3
Target sequence in this assay (P14780 107-449 limits assumed): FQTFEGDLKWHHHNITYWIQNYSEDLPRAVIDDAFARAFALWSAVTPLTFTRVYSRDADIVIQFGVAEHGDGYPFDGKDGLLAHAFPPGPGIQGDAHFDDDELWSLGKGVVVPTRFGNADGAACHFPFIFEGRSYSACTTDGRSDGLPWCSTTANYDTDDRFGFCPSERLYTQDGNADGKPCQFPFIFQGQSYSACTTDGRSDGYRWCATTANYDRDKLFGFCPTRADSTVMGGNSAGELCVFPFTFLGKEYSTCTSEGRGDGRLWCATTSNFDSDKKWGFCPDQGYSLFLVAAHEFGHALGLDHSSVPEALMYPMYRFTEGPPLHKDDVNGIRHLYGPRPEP

active recombinant MMPs = details: single recombinant MMPs, 500 nM HxBP-Bt
Description: A single active recombinant MMP (5 nM by mass, 5 μL total vol) was incubated with HxBP-Bt (30 min at 37° C., 500 nM final HxBP-Bt concentration) under reversible binding conditions. Tested MMPs included MMP1, MMP2, MMP3, MMP7, MMP8, MMP9, MMP10, MMP12, and MMP13. Each containing biotin-labeled MMP (MMP reversibly bound to HxBP-Bt) was then incubated with a cocktail of MMP capture beads (60 minutes, RT, 25 μL total vol).
A cocktail of MMP capture beads diluted in Microparticle Diluent 3 (R&D systems; PN 895857) (17.5 μL bead suspension) was added to the HxBP-Bt-labeled sample (7.5 μL) in a 384-well plate (60 minutes, with rotary agitation, room temperature). Samples were washed 3 times with PBS 0.1% TWEEN®-20 (300 μl each wash) using the Magnetic BioTek plate washer (405 Select TS), incubated with Streptavidin-R-Phycoerythrin (10 μg/mL) diluted in diluted wash buffer concentrate (R&D systems; PN 895003) (15 minutes, with rotary agitation, room temperature), and again washed 3 times by plate washer. Samples were immediately characterized using the FLEXMAP 3D system (Luminex).

MMP3 [9] = target: T1, MMP3; details: literature; cited from earlier work
Target sequence in this assay (P08254 100-477, species assumed): as the sequence (P08254 100-477) above

MMP12 = MMP12 (Homo sapiens, UniProt P39900); details: literature; cited from earlier work
Chain of MMP12 (P39900 106-470, species assumed): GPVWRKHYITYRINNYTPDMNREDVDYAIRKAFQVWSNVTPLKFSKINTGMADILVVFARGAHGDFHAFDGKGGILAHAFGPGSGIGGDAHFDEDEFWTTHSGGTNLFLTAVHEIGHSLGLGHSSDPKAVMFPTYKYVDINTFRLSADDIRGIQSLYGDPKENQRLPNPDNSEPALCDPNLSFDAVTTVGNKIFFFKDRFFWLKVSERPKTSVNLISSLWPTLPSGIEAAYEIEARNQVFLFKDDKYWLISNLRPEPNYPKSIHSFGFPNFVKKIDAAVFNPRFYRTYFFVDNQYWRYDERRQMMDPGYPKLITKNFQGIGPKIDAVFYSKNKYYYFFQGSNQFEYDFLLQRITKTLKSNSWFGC

inhibitory activity (loss of probe labeling) (MMP3 [1]): increased potency
inhibitory activity (loss of probe labeling) (MMP2 [2]): increased potency
Structure (SMILES): CC(C)ON([C@@H](C(=O)NO)C(C)C)S(=O)(=O)c1ccc(-c2ccccc2)cc1 [ARP 101]

Structure (SMILES): CN1C(=O)N(CC(C(=O)NO)[C@H](CC2CCCC2)C(=O)N2CCCCC2)C(=O)C1(C)C (stereo partly shown) [Ro32-3555, Ro 32-3555 (Trocade)]
Ki (MMP7 [3]): 42 nM
inhibitory activity (loss of probe labeling) (MMP7 [4]): significant potency
inhibitory activity (loss of probe labeling) (MMP1): significant potency
Ki (MMP2 [5]): 154 nM
Ki (MMP9 [6]): 95 nM

Structure (SMILES): CNC(=O)[C@@H](NC(=O)[C@H](CC(C)C)[C@H](O)C(=O)NO)C(C)(C)C [Marimastat]
inhibitory activity (loss of probe labeling) [7]: inhibitory activity toward every protease tested

inhibitory activity (loss of probe labeling) (MMP3 [1]): expected inhibition of MMP3
Structure (SMILES): N#Cc1ccc(-c2ccc(OCCC(=O)NO)cc2)cc1 [MMP Inhib 3 VII, MMP3 Inhibitor VII]

Structure (SMILES): CNC(=O)[C@H](Cc1ccccc1)NC(=O)[C@H](CC(C)C)[C@H](CSc1cccs1)C(=O)NO [Batimastat]
IC50 (MMP7 [3]): 6 nM
inhibitory activity (loss of probe labeling) [7]: inhibitory activity toward every protease tested
inhibitory activity (loss of probe labeling) (MMP3 [1]): stronger inhibitory activity against MMP3 compared with Marimastat
IC50 (MMP9 [6]): 1 nM

Structure (SMILES): O=S(=O)(CC1CS1)c1ccc(Oc2ccccc2)cc1 (stereo not shown) [SB 3CT, SB-3CT]
inhibitory activity (loss of probe labeling) (MMP9 [8]): did not prevent the binding of HxBP-Bt

effect on HxBP-Bt binding (MAMBI signal) (active recombinant MMPs): completely eliminated HxBP-Bt binding
Structure (SMILES): O=C(O)CN(CCN(CC(=O)O)CC(=O)O)CC(=O)O [EDTA, Ethylenediaminetetraacetic acid]

inhibitory activity (loss of probe labeling) (MMP3 [1]): expected inhibition of MMP3
Structure (SMILES): COC[C@H](NC(=O)[C@H](NC(=O)[C@@H](CCCc1ccc(-c2ccccc2)c(C)c1)CC(=O)O)C(C)(C)C)c1ccccc1 [UK 370106]
IC50 (MMP7 [3]): 5800 nM
IC50 (MMP3 [9]): 23 nM
IC50 (MMP9 [6]): 30400 nM
IC50 (MMP12): 42 nM

inhibitory activity (loss of probe labeling) (MMP9 [8]): did not prevent the binding of HxBP-Bt
inhibitory activity (loss of probe labeling) (MMP2 [2]): did not prevent the binding of HxBP-Bt
Structure (SMILES): O=P(O)(O)C(NS(=O)(=O)c1ccc(-c2ccc(Cl)cc2)cc1)P(=O)(O)O [MMP inhibitor 2, MMP Inhibitor 2 IV]
IC50 (MMP9 [6]): > 1000 nM

Structure (SMILES): O=C(O)C[C@@H](NC(=O)c1cc(-c2ccc(-c3ccncc3)cc2)cs1)c1ccccc1 [PF 356231]
IC50 (MMP7 [3]): 96000 nM
IC50 (MMP2 [5]): > 100 nM
